Our source for the IC50 values is BindingDB's records for doi:10.1021/jm100157m (University of Arizona, 2010).

For orientation: IC50 means the concentration at which inhibition is half-maximal.

This assay in a line: Agonist activity at mu opioid receptor in guinea pig ileum assessed as inhibition of electrically-stimulated muscle contraction.

Regarding `CSCC[C@H](NC(=O)[C@H](Cc1ccccc1)NC(=O)CNC(=O)[C@@H](C)NC(=O)[C@@H](N)Cc1ccc(O)cc1)C(=O)N1CCC[C@H]1C(=O)N[C@@H](CC(C)C)C(=O)N[C@@H](Cc1c[nH]c2ccccc12)C(=O)NCc1cc(C(F)(F)F)cc(C(F)(F)F)c1` [Tyr-D-Ala-Gly-Phe-Met-Pro-Leu-Trp-NH-3,5-Bzl(CF 3) 2], the IC50 is 420 nM.
